From patent US20210000838A1, “COMBINATION THERAPY” (MEI Pharma, Inc., priority 2018, published 2021)

How the values were obtained:
Format in all cases: cell-based
SU-DHL-10 cells = experiment: ATPLite growth inhibition assay, SU-DHL-10 cells; settings: single agent, FIG. 10
Source text: (§1) Cells were thawed from a liquid nitrogen preserved state. […] Assay plates were accepted if they pass the following quality control standards: relative luciferase values were consistent throughout the entire experiment, Z-factor scores were greater than 0.6, untreated/vehicle controls behaved consistently on the plate. […]

DOHH-2 cells = experiment: ATPLite growth inhibition assay, DOHH-2 cells; settings: single agent, FIG. 10
Source text: as §1

OCI-Ly19 cells = experiment: ATPLite growth inhibition assay, OCI-Ly19 cells; settings: single agent, FIG. 10
Source text: as §1

[1] = system: panel of 8 DLBCL cell lines; experiment: ATPLite growth inhibition assay across panel of 8 DLBCL cell lines; settings: single agent, FIG. 9
Pfeiffer cells = experiment: ATPLite growth inhibition assay, Pfeiffer cells; settings: single agent, FIG. 10
Source text: as §1

OCI-Ly3 cells = experiment: ATPLite growth inhibition assay, OCI-Ly3 cells; settings: single agent, FIG. 10
Source text: as §1

NU-DHL-1 cells = experiment: ATPLite growth inhibition assay, NU-DHL-1 cells; settings: single agent, FIG. 10
Source text: as §1

`CN1CCC(c2ccccc2CC(C)(C)Nc2nc(N3CCOCC3)nc(-n3c(C(F)F)nc4ccccc43)n2)CC1` [Compound I, 4-(2-(difluoromethyl)-1H-benzo[d]imidazol-1-yl)-N-(2-methyl-1-(2-(1-methylpiperidin-4-yl)phenyl)propan-2-yl)-6-morpholino-1,3,5-triazin-2-amine] was tested, and the “growth inhibition effect type” value (SU-DHL-10 cells) was “sub-cytostatic effects”, the “growth inhibition effect type” value (DOHH-2 cells) was “cytotoxic effects” and the “growth inhibition effect type” value (OCI-Ly19 cells) was “cytotoxic effects”. For the same molecule, the growth inhibition levels ([1]; all cell lines) was over 50%, the GI50 ([1]; median across cell line panel, 72 hours) was 1.73 µM and the “growth inhibition effect type” value (Pfeiffer cells) was “sub-cytostatic effects”. For the same molecule, the “growth inhibition effect type” value (OCI-Ly3 cells) was “cytotoxic effects” and the “growth inhibition effect type” value (NU-DHL-1 cells) was “sub-cytostatic effects”.
